Reference: patent US5663205A, “Pharmaceutical composition for use in glaucoma treatment” (Senju Pharmaceutical Co. Ltd., priority 1992, dated 1997)

System: cornea
Experiment: Test Example 7 (2)(d): observation on fluorescein-dyed spots of the cornea
Assay type: in vivo, Japanese white rabbits
Conditions: 1% and 0.5% ophthalmic solutions, 28 days
Description: (2) Ocular local toxicity test in rabbits of 1.0% and 0.5% ophthalmic solutions of amosulalol hydrochloride by consecutive instillation for 28 days: With 15 male Japanese white rabbits divided into 3 groups each consisting of 5 rabbits, 1.0% and 0.5% ophthalmic solutions of amosulalol hydrochloride as well as physiological saline as a control were applied in one drop (0.05 ml) per time to the right eye of each rabbit alone, four times a day at a regular interval of 2.5 hours, for 28 days consecutively with the left eye being left untreated. (d) Observation on fluorescein-dyed spots of the cornea: Before instillation of 1.0% and 0.5% ophthalmic solutions of amosulalol hydrochloride as well as on the day (Day 1) of initiating the instillation and on the 2nd, 4th, 7th, 14th, 21st, 28th days after initiating the instillation but each time after completion of such instillation, and on the morning of the last instillation (29th day), 10 μl of 0.1% aqueous fluorescein solution was applied topically to the eyes of each test animal, and observation was performed on the abrasion of the corneal epithelial cells with a photo-slit lamp.

SMILES: COc1ccccc1OCCNCC(O)c1ccc(C)c(S(N)(=O)=O)c1.Cl (stereo not shown) [amosulalol hydrochloride, 5-[1-hydroxy-2-[2-(2-methoxyphenoxy)ethylamino]ethyl]-2-methylbenzenesulfonamide hydrochloride]
- observation of fluorescein-dyed spots in the cornea: no abnormalities
